Reference: US12673961B2 (Agios Pharmaceuticals, Inc., priority 2022, dated 2026)

Target: T1, human PAH with the R408W mutation (Homo sapiens, UniProt P00439, R408W)
T1 construct: expressed in transfected cells
T1 sequence (P00439 1-452 R408W): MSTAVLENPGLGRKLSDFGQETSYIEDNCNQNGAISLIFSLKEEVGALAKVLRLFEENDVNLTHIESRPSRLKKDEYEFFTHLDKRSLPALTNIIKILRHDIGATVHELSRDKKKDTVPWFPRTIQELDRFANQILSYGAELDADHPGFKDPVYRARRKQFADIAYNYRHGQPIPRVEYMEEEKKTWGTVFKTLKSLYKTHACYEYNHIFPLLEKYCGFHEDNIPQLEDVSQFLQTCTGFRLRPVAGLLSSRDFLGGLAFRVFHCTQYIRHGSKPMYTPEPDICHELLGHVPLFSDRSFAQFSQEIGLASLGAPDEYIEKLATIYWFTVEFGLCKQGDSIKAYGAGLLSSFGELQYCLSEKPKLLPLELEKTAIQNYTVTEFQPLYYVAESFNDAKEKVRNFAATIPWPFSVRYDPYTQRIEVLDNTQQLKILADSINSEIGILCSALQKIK
Test: Cell Based Phenylalanine Flux Assay;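 further: Ten-point dose curve from 2-fold serial dilutions, run in duplicate at 0.5% DMSO final, tracer step used 20 µM sepiapterin and 800 µM labeled phenylalanine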
Settings: A375 cells expressing human R408W PAH; 24 hrs with compound, then sepiapterin and 13C9,15N-Phenylalanine for 4 hours; 13C-Tyrosine by LC-MS; average where tested multiple times; read-out: AC50

SMILES	AC50 [nM]
Cc1cccc2cc([C@H]3c4nc[nH]c4CCN3c3nnc(-c4ccccn4)o3)nn12 [Example 1641, (R)-2-(4-(7-methylpyrazolo [1,5-a]pyridin-2-yl)-6,7-dihydro-1H-imidazo[4,5-c]pyridin-5(4H)-yl)-5-(pyridin-2-yl)-1,3,4-oxadiazole]	> 5000
Cc1c(-c2nnc(C(=O)N3CCc4[nH]cnc4[C@H]3c3cc4c(OC(F)(F)F)cccn4n3)o2)cnn1C [Example 1684, (S)-(5-(1,5-dimethyl-1H-pyrazol-4-yl)-1,3,4-oxadiazol-2-yl)-(4-(4-(trifluoromethoxy)pyrazolo[1,5-a]pyridin-2-yl)-6,7-dihydro-1H-imidazo [4,5-c]pyridin-5(4H)-yl)methanone]	< 500
FC(F)(F)c1cccn2nc([C@H]3c4nc[nH]c4CCN3c3ncccn3)cc12 [Example 1693, (R)-5-(pyrimidin-2-yl)-4-(4-(trifluoromethyl)pyrazolo [1,5-a]pyridin-2-yl)-4,5,6,7-tetrahydro-1H-imidazo [4,5-c]pyridine]	1000 to 5000
O=C(c1cnn2cc(C3CC3)ccc12)N1CCc2[nH]cnc2[C@@H]1c1cc2c(C(F)(F)F)cccn2n1 [Example 1717, (R)-(6-cyclopropylpyrazolo [1,5-a]pyridin-3-yl)(4-(4-(trifluoromethyl)pyrazolo [1,5-a]pyridin-2-yl)-6,7-dihydro-1H-imidazo[4,5-c]pyridin-5(4H)-yl)methanone]	> 5000
O=C(c1nnc(C2CC2)o1)N1CCc2[nH]cnc2[C@H]1c1cc2c(OC(F)(F)F)cccn2n1 [Example 1724, (S)-(5-cyclopropyl-1,3,4-oxadiazol-2-yl)(4-(4-(trifluoromethoxy)pyrazolo [1,5-a]pyridin-2-yl)-6,7-dihydro-1H-imidazo[4,5-c]pyridin-5(4H)-yl)methanone]	< 500

The next lines start with the values.

AC50 [nM]	SMILES
500 to 1000	COCc1ccc2c(C(=O)N3CCc4[nH]cnc4[C@H]3c3cc4c(Cl)cccn4n3)cnn2c1 [Example 1650, (S)-(4-(4-chloropyrazolo [1,5-a]pyridin-2-yl)-6,7-dihydro-1H-imidazo [4,5-c]pyridin-5(4H)-yl)(6-(methoxymethyl)pyrazolo [1,5-a]pyridin-3-yl)methanone]
500 to 1000	Cc1ccc2c(C(=O)N3CCc4[nH]cnc4[C@H]3c3cc4c(C(F)(F)F)cccn4n3)cnn2c1 [Example 1666, (S)-(6-methylpyrazolo [1,5-a]pyridin-3-yl)(4-(4-(trifluoromethyl)pyrazolo [1,5-a]pyridin-2-yl)-6,7-dihydro-1H-imidazo[4,5-c]pyridin-5(4H)-yl)methanone]
500 to 1000	Cc1ccc2c(C(=O)N3CCc4[nH]cnc4[C@H]3c3cc4c(C)cccn4n3)cnn2c1 [Example 1668, (S)-(4-(4-methylpyrazolo [1,5-a]pyridin-2-yl)-6,7-dihydro-1H-imidazo [4,5-c]pyridin-5(4H)-yl)(6-methylpyrazolo[1,5-a]pyridin-3-yl)methanone]
> 5000	O=C(c1cnn2cc(C3CC3)ccc12)N1CCc2[nH]cnc2[C@@H]1c1cc2c(F)cccn2n1 [Example 1673, (R)-(6-cyclopropylpyrazolo [1,5-a]pyridin-3-yl)(4-(4-fluoropyrazolo[1,5-a]pyridin-2-yl)-6,7-dihydro-1H-imidazo[4,5-c]pyridin-5(4H)-yl)methanone]
500 to 1000	Cc1ccc2c(C(=O)N3CCc4[nH]cnc4[C@H]3c3cc4c(C(F)F)cccn4n3)cnn2c1 [Example 1712, (S)-(4-(4-(difluoromethyl)pyrazolo[1,5-a]pyridin-2-yl)-6,7-dihydro-1H-imidazo [4,5-c]pyridin-5(4H)-yl)(6-methylpyrazolo[1,5-a]pyridin-3-yl)methanone]
< 500	CN(C)c1ccc2c(C(=O)N3CCc4[nH]cnc4[C@H]3c3cc4c(C(F)(F)F)cccn4n3)cnn2c1 [Example 1746, (S)-(6-(dimethylamino)pyrazolo[1,5-a]pyridin-3-yl)(4-(4-(trifluoromethyl)pyrazolo [1,5-a]pyridin-2-yl)-6,7-dihydro-1H-imidazo[4,5-c]pyridin-5(4H)-yl)methanone]
